Reference: patent publication US8759318B2, “Phosphoramidate derivatives of guanosine nucleoside compounds for treatment of viral infections” (Inhibitex, Inc., priority 2009, dated 2014)
Like-named read-outs stand apart in the source and are kept apart here.

Legend:
[1] = test system: HCV replicon (Genotype 1b); assay: Luciferase genotype 1b replicon potency assay; conditions: Hepatitis C virus, GETYPE1B, read-out: IC50 μM, HCV genotype 1b luciferase replicon, Renilla luciferase reporter
in vitro = conditions: human
[2] = Protide stability in normal plasma, rat; type: in vitro ADME; conditions: 37° C.
Procedure: (§1) Selected nucleoside 5′-phosphoramidates were examined for stability in human, cynomolgous monkey, rat and mouse plasma at 37° C. at both 30 min and 90 min time points.
(§2) Protide Stability in Normal Plasma: Plasma samples were prepared for analysis as follows. 50 μl of each test sample were distributed a 96-well V-bottom plate. 200 μl of acetonitrile containing 10 ng/ml of an internal standard was added to each plasma sample. The precipitated samples were centrifuged at 2500 rpm, 4° C. for 20 minutes in a Sorvall RT6000S centrifuge (Thermo Scientific, Waltham Mass.) and 100 μl of supernatant from each sample was transferred into a 96 deep well plate followed by the addition of 100 μl H2O to each sample. Samples were covered, mixed well by vortexing and maintained at 2-8° C. before and during analysis. 15 μl of each test sample was analyzed for protide concentrations by liquid chromatography coupled to tandem mass spectrometry (LC-MS/MS). Liquid chromatography was performed with an Agilent 1100 Series HPLC system equipped with a Synergi 4 μm Polar-RP, 30×2.0 mm column (Phenomenex, Torrance, Calif.). The HPLC system was coupled to an API 4000 triple quadrupole mass spectrometer (Applied Biosystems, Framingham, Mass.). Mass spectrometry was performed in positive ion mode and data was analyzed using Analyst® v1.4.2 software (Applied Biosystems, Framingham, Mass.). Data was presented as the percentage of compound recovered as compared to the 0 time point control.

[3] = Protide stability in normal plasma, human; type: in vitro ADME; conditions: 37° C.
Procedure: as §1, §2

[4] = Protide stability in normal plasma, cynomolgous monkey; type: in vitro ADME; conditions: 37° C.
Procedure: as §1, §2

[5] = Protide stability in normal plasma, mouse; type: in vitro ADME; conditions: 37° C.
Procedure: as §1, §2

[6] = Mouse PK: 2'-C-methylguanosine triphosphate levels in liver; conditions: 2'-C-methylguanosine triphosphate in mouse liver, 50 mg/kg PO
[7] = mouse, in vivo, po, 50 mg/kg; for Cmax / T1/2 / Tmax: female, ICR
[8] = Cytotoxicity assay (CellTiter-Glo); conditions: human, Huh7 HCV replicon cells (genotype 1b)
Huh7 replicon cells = assay: Cytotoxicity assay (CellTiter-Glo); conditions: read-out: CC50 μM; 72 h, CellTiter-Glo

Compound	IC50 [1] [µM]	CC50 (in vitro) [µM]	% Compound Remaining Compared to %100 Acetonitrile Control ([2]; 30 min) [%]	% Compound Remaining Compared to %100 Acetonitrile Control ([2]; 1.5 h) [%]	% Compound Remaining Compared to %100 Acetonitrile Control ([3]; 30 min) [%]	% Compound Remaining Compared to %100 Acetonitrile Control ([3]; 1.5 h) [%]	% Compound Remaining Compared to %100 Acetonitrile Control ([4]; 30 min) [%]	% Compound Remaining Compared to %100 Acetonitrile Control ([4]; 1.5 h) [%]	% Compound Remaining Compared to %100 Acetonitrile Control ([5]; 30 min) [%]	% Compound Remaining Compared to %100 Acetonitrile Control ([5]; 1.5 h) [%]	CC50 at 72 h [8] [µM]	further results
COc1nc(N)nc2c1ncn2C1O[C@H](COP(=O)(N[C@H](C(=O)OCC(C)(C)C)C(C)C)Oc2cccc3ccccc23)[C@@H](O)[C@@]1(C)O (stereo partly drawn) [Example 42, (2S)-neopentyl 2-((((2R,3R,4R)-5-(2-amino-6-methoxy-9H-purin-9-yl)-3,4-dihydroxy-4-methyltetrahydrofuran-2-yl)methoxy)(naphthalen-1-yloxy)phosphorylamino)-3-methylbutanoate]	0.21	30	50.0	37.0	88.5	82.5	87.0	82.5	66.5	45.5	–	AUC0-6 [6]: 1540 ng·h/g
CC(C)[C@H](NP(=O)(OC[C@H]1OC(n2cnc3c(=O)[nH]c(N)nc32)[C@](C)(O)[C@@H]1O)Oc1cccc2ccccc12)C(=O)OCc1ccccc1 (stereo partly drawn) [M, reference compound]	–	–	–	–	–	–	–	–	–	–	–	AUC0-6 [6]: 1937 ng·h/g
CC(C)[C@H](NP(=O)(OC[C@H]1OC(n2cnc3c(=O)[nH]c(N)nc32)[C@](C)(O)[C@@H]1O)Oc1cccc2ccccc12)C(=O)OCC(C)(C)C (stereo partly drawn) [B, reference compound]	–	–	66.7	42.0	74.7	78.1	84.5	84.9	68.3	32.3	–	–
COc1nc(N)nc2c1ncn2C1O[C@H](COP(=O)(N[C@H](C(=O)OCc2ccccc2)C(C)C)Oc2cccc3ccccc23)[C@@H](O)[C@@]1(C)O (stereo partly drawn) [Example 36]	0.09	34	16.9	1.4	70.3	74.1	93.7	96	0.4	0	–	Cmax [7]: 1209.7 ng/g; T1/2 [7]: 2.0 h; Tmax [7]: 4.0 h; AUC0-6 [7]: 5055 ng·h/g; AUC0-24 [7]: 6356 ng·h/g
C[C@@]1(O)[C@H](O)[C@@H](CO)O[C@H]1n1cnc2c(NCc3ccccc3)nc(N)nc21 [Example 84, (3R,4R,5R)-2-(2-amino-6-(benzylamino)-9H-purin-9-yl)-5-(hydroxymethyl)-3-methyltetrahydrofuran-3,4-diol]	27	–	–	–	–	–	–	–	–	–	> 100	–
COc1nc(N)nc2c1ncn2C1O[C@H](COP(=O)(N[C@H](C(=O)O[C@@H](C)c2ccccc2)C(C)C)Oc2cccc3ccccc23)[C@@H](O)[C@@]1(C)O (stereo partly drawn) [Example 38, (2S)-((S)-1-phenylethyl) 2-((((2R,3R,4R)-5-(2-amino-6-methoxy-9H-purin-9-yl)-3,4-dihydroxy-4-methyltetrahydrofuran-2-yl)methoxy) (naphthalen-1-yloxy)phosphorylamino)-3-methylbutanoate]	0.94	29	–	–	–	–	–	–	–	–	–	Cmax [7]: 3130.0 ng/g; T1/2 [7]: 4.3 h; Tmax [7]: 4.0 h; AUC0-6 [7]: 14380 ng·h/g; AUC0-24 [7]: 26837 ng·h/g
COc1nc(N)nc2c1ncn2C1O[C@H](COP(=O)(N[C@H](C(=O)OC2CCOCC2)C(C)C)Oc2cccc3ccccc23)[C@@H](O)[C@@]1(C)O (stereo partly drawn) [Example 47, (2S)-tetrahydro-2H-pyran-4-yl 2-((((2R,3R,4R)-5-(2-amino-6-methoxy-9H-purin-9-yl)-3,4-dihydroxy-4-methyltetrahydrofuran-2-yl)methoxy)(naphthalen-1-yloxy)phosphorylamino)-3-methylbutanoate]	0.18	> 100	71.3	57.3	105.1	129.5	112.5	118.5	74.3	67.4	–	–
COc1nc(N)nc2c1ncn2C1O[C@H](CO)C[C@@]1(C)O (stereo partly drawn) [Example 94, (3R,5S)-2-(2-amino-6-methoxy-9H-purin-9-yl)-5-(hydroxymethyl)-3-methyl-tetrahydrofuran-3-ol]	> 100	–	–	–	–	–	–	–	–	–	> 100	–
COc1nc(N)nc2c1ncn2C1O[C@H](COP(=O)(N[C@@H](C)C(=O)OCc2ccccc2)Oc2cccc3ccccc23)[C@@H](O)[C@@]1(C)O (stereo partly drawn) [Example 13]	0.026	14	–	–	97.2	85.4	89.1	77.0	<3.9	–	–	–
COc1nc(NCc2ccc(F)cc2)nc2c1ncn2[C@@H]1O[C@H](CO)[C@@H](O)[C@@]1(C)O [Example 92, (2R,3R,4R,5R)-2-(2-(4-fluorobenzylamino)-6-methoxy-9H-purin-9-yl)-5-(hydroxymethyl)-3-methyltetrahydrofuran-3,4-diol]	> 40	–	–	–	–	–	–	–	–	–	> 100	–
CNc1nc(N)nc2c1ncn2C1O[C@H](CO)[C@@H](O)[C@@]1(C)O (stereo partly drawn) [Example 80, (3R,4R,5R)-2-(2-amino-6-(methylamino)-9H-purin-9-yl)-5-(hydroxymethyl)-3-methyltetrahydrofuran-3,4-diol]	13	–	–	–	–	–	–	–	–	–	> 100	–
CSc1nc(N)nc2c1ncn2[C@@H]1O[C@H](CO)[C@@H](O)[C@@]1(C)O [Example 88, (2R,3R,4R,5R)-2-(2-amino-6-(methylthio)-9H-purin-9-yl)-5-(hydroxymethyl)-3-methyltetrahydrofuran-3,4-diol]	11	–	–	–	–	–	–	–	–	–	150	–
CCOc1nc(N)nc2c1ncn2C1O[C@H](CO)[C@@H](O)[C@@]1(C)O (stereo partly drawn) [Example 72, (3R,4R,5R)-2-(2-amino-6-ethoxy-9H-purin-9-yl)-5-(hydroxymethyl)-3-methyltetrahydrofuran-3,4-diol]	11	–	–	–	–	–	–	–	–	–	> 100	–
COc1nc(N)nc2c1ncn2[C@@H]1O[C@H](CO)[C@@H](O)[C@@]1(C)O [Example 2, (2R,3R,4R,5R)-2-(2-amino-6-methoxy-9H-purin-9-yl)-5-(hydroxymethyl)-3-methyltetrahydrofuran-3,4-diol]	3.1	–	–	–	–	–	–	–	–	–	–	Multiple Above IC90 at Cmax [7]: 25.1; CC50 (Huh7 replicon cells): > 100 µM; AUC0-6 [6]: 8748 ng·h/g; AUC0-24 [6]: 30618 ng·h/g
C[C@H](NP(=O)(OC[C@H]1OC(n2cnc3c(=O)[nH]c(N)nc32)[C@](C)(O)[C@@H]1O)Oc1cccc2ccccc12)C(=O)O[C@@H](C)c1ccccc1 (stereo partly drawn) [G, reference compound]	–	–	–	–	–	–	–	–	–	–	–	AUC0-6 [6]: 6977 ng·h/g
COc1nc(N)nc2c1ncn2C1O[C@H](COP(=O)(N[C@H](C(=O)OCC(C)(C)C)C(C)C)Oc2c(C)ccc3ccccc23)[C@@H](O)[C@@]1(C)O (stereo partly drawn) [Example 54]	1.5	23	60.6	58.4	80.4	93.5	119.3	124.2	60.7	45.7	–	–
C[C@H](NP(=O)(OC[C@H]1OC(n2cnc3c(=O)[nH]c(N)nc32)[C@](C)(O)[C@@H]1O)Oc1cccc2ccccc12)C(=O)OCC(C)(C)C (stereo partly drawn) [A, reference compound]	–	–	0	0	83.2	80.8	98.5	102.4	0	0	–	AUC0-6 [6]: 1584 ng·h/g
